Series [1] is described as follows: Irritation potential of topical solution. To be noted: solution comprising 2.2% w/w umeclidinium bromide.
For series [2] the following is noted: 0.5 mg (500 mcg) inhaled once daily for 10 days, thorough QT study; cited from earlier work.
A short description of series [3]: MALDI imaging of distribution in skin layers. Type of series: in vitro ADME, human. The conditions noted are these: twenty-four hours after single finite topical dose. An excerpt: Matrix-assisted laser desorption/ionization (MALDI) has emerged as a powerful and diverse technology for analyzing the spatial distribution of endogenous and exogenous compounds directly from a tissue section. [See Seeley E H, Caprioli R M. MALDI imaging mass spectrometry of human tissue: method challenges and clinical perspectives. Trends Biotechnol. 29(3), 136-143 (2011); and Svatos A. Mass spectrometric imaging of small molecules. Trends Biotechnol. 28(8), 425-434 (2010)]. […] Anal Bioanal Chem. (2013); 405(4):1159-70]. MALDI imaging in human skin tissue sections: focus on various matrices and enzymes.

The nature of series [4]: Population pharmacokinetic model of IV and occluded axilla plasma data. Type of series: in vivo, human. An excerpt: Of the drug that was available systemically, 9.70% (66.7%) was absorbed through a zero order process.
The nature of series [5]: Clinical study, single topical [14C] umeclidinium dose to axilla or palm of healthy male subjects. The class given is in vivo, human. Here is the method:
Up to four cohorts were to be enrolled (Cohort A: unoccluded axilla; Cohort B: occluded axilla; Cohort C: unoccluded palm; Cohort D: occluded palm). Six subjects were to be dosed in each cohort and complete the study procedures.
On the day of dosing, subjects will receive the study drug applied to the axilla or palm. Each subject will only receive a single dose of study drug which will be applied to the test site and remain on the application site for 8 hours. Serial blood samples will be collected throughout treatment. An interim analysis using simulations will be conducted after each cohort to determine the likelihood of exceeding the safety cover for Cmax or AUC and the likelihood of obtaining quantifiable concentrations sufficient to determine the half-life in the subsequent cohorts.

Consider `OC(c1ccccc1)(c1ccccc1)C12CC[N+](CCOCc3ccccc3)(CC1)CC2` [umeclidinium, 4-[hydroxy(diphenyl)methyl]-1-{2-[(phenylmethyl)oxy]ethyl}-1-azoniabicyclo[2.2.2]octane], for which the irritation potential result in series [1] is “low irritation potential”. Besides, the tolerability result in series [2] is recorded as “well tolerated”. The “qualitative distribution in the skin layers” value in series [3] is “penetrated to the deeper sections of the dermis and accumulated in the area where the sweat glands are present”. The “estimated absolute plasma bioavailability, mean (RSE %)” value in series [4] (administration to occluded axilla, RSE 55.3%) is given as 0.19%. In series [4] (occluded axilla, RSE 66.7%), the “share of systemically available drug absorbed through a zero order process, mean (RSE %)” value was 9.70%. For the same compound, the “percent dose recovered from the skin surface, mean” value in series [5] (Cohort A, unoccluded axilla, end of 8 hour application, range 77.7-84.1%) is given as 80.6%; in series [5] (Cohort B, occluded axilla, range 69.2%-81.7%), 75.4%; in series [5] (Cohort D, occluded palm, range 45.6%-59.9%) it was 52.5%. Further, the “median time to maximum plasma concentration” value in series [5] (Cohort A, unoccluded axilla, range: 12 h-30 h) was found to be 13 h. Further, the “median time to maximum concentration” value in series [5] (Cohort B, occluded axilla, range: 2 h-24 h) came out at 13 h. Further, the plasma concentrations entry in series [5] (Cohort D, occluded palm) was “no quantifiable plasma concentrations”.

Source of the values: patent US20160166487A1, “TOPICAL COMPOSITIONS FOR TREATMENT OF EXCESSIVE SWEATING AND METHODS OF USE THEREOF” (GLAXOSMITHKLINE INTELLECTUAL PROPERTY DEVELOPMENT LIMITED, priority 2013, published 2016).
